Measurements: patent US10821115B2, “Compounds that inhibit Mcl-1 protein” (priority 2017, dated 2020)
Like-named read-outs stand apart in the source and are kept apart here.

What was measured:
[1] = molecular target: recombinant human Mcl-1 (residues 171-327) / Bim interaction (Homo sapiens (Human), UniProt Q07820); assay: biochemical; format: binding; conditions: TR-FRET, Mcl-1(171-327) / biotin-Bim (51-76); read-out: Mcl-1 HTRF IC50
[2] = system: human multiple myeloma cell line, OPM-2; assay: Cell viability assay (OPM-2 10 FBS), CellTiter-Glo; format: cell-based
Procedure, shortened: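 Steps: plate cells at 3000/well in 10% FBS growth medium, add serially diluted compound, incubate 16 h at 37 °C with 5% CO2, add detection reagent and read luminescence after 25 min. A 4-parameter logistic model gives IC50.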

[3] = Homo sapiens, OPM-2, 16 h, read-out: OPM-2 10% FBS IC50 IP, OPM-2 cells, 10% FBS, 16 h, CellTiter-Glo
[4] = read-out: OPM-2 10% FBS IC50 IP, OPM-2 cells, 10% FBS, 16 h, CellTiter-Glo

Sequence of recombinant human Mcl-1 (residues 171-327) / Bim interaction (Q07820 171-327): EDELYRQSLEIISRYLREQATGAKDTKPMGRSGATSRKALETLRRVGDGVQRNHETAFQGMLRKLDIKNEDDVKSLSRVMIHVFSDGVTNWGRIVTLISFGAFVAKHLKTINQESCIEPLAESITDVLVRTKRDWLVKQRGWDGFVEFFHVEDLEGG

Row | Compound | IC50 [1] | IC50 [2, 3] | IC50 [2, 4]
1 | C[C@@H]1[C@@H](C)CCC[C@]2(CC(N3CCCC3)=NO2)[C@@H]2CC[C@H]2CN2C[C@@]3(CCCc4cc(Cl)ccc43)COc3ccc(cc32)C(=O)NS1(=O)=O [Example 100147, (1S,3′R,6′R,7′S,11′S,12′R)-6-chloro-11′,12′-dimethyl-3″-(1-pyrrolidinyl)-3,4-dihydro-2H,4″H,15′H-dispiro[naphthalene-1,22′-[20]oxa[13]thia[1,14]diazatetracyclo [14.7.2.0~3,6~.0~19,24~]pentacosa[16,18,24]triene-7′,5″-[1,2]oxazol]-15′-one 13′,13′-dioxide] | 0.305 nM | 666 nM | –
2 | C[C@@H]1[C@@H](C)C/C=C/[C@@](O)(CCCO)[C@@H]2CC[C@H]2CN2C[C@@]3(CCCc4cc(Cl)ccc43)COc3ccc(cc32)C(=O)NS1(=O)=O [Example 100148, (1S,3′R,6′R,7′S,8′E,11′S,12′R)-6-chloro-7′-hydroxy-7′-(3-hydroxypropyl)-11′,12′-dimethyl-3,4-dihydro-2H,15′H-spiro[naphthalene-1,22′-[20]oxa[13]thia[1,14]diazatetracyclo [14.7.2.0~3,6~.0~19,24~]pentacosa[8,16,18,24]tetraen]-15′-one 13′,13′-dioxide] | 0.113 nM | – | 239 nM
3 | COC[C@@]1(O)CCC[C@H](C)[C@@H](C)S(=O)(=O)NC(=O)c2ccc3c(c2)N(C[C@@H]2CC[C@H]21)C[C@@]1(CCCc2cc(Cl)ccc21)CO3 [Example 100150, (1S,3′R,6′R,7′R,11′S,12′R)-6-chloro-7′-hydroxy-7′-(methoxymethyl)-11′,12′-dimethyl-3,4-dihydro-2H,15′H-spiro[naphthalene-1,22′-[20]oxa[13]thia[1,14]diazatetracyclo [14.7.2.0~3,6~.0~19,24~]pentacosa[16,18,24]trien]-15′-one 13′,13′-dioxide] | 1.69 nM | 1430 nM | –
4 | C[C@@H]1[C@@H](C)C/C=C/[C@@](O)(Cc2ccncn2)[C@@H]2CC[C@H]2CN2C[C@@]3(CCCc4cc(Cl)ccc43)COc3ccc(cc32)C(=O)NS1(=O)=O [Example 100151, (1S,3′R,6′R,7′S,8′E,11′S,12′R)-6-chloro-7′-hydroxy-11′,12′-dimethyl-7′-(4-pyrimidinylmethyl)-3,4-dihydro-2H,15′H-spiro[naphthalene-1,22′-[20]oxa[13]thia[1,14]diazatetracyclo [14.7.2.0~3,6~.0~19,24~]pentacosa[8,16,18,24]tetraen]-15′-one 13′,13′-dioxide] | 0.12 nM | – | 71 nM
5 | C[C@@H]1[C@@H](C)C/C=C/[C@@](O)(Cc2ccncn2)[C@@H]2CC[C@H]2CN2C[C@@]3(CCCc4cc(Cl)ccc43)COc3ccc(cc32)C(=O)NS1(=O)=O [Example 100152, (1S,3′R,6′R,7′S,8′E,11′S,12′R)-6-chloro-7′-hydroxy-11′,12′-dimethyl-7′-(4-pyrimidinylmethyl)-3,4-dihydro-2H,15′H-spiro[naphthalene-1,22′-[20]oxa[13]thia[1,14]diazatetracyclo [14.7.2.0~3,6~.0~19,24~]pentacosa[8,16,18,24]tetraen]-15′-one 13′,13′-dioxide] | 0.449 nM | – | 377 nM
6 | C[C@@H]1[C@@H](C)CCC[C@@](O)(CC(=O)N2CCOC2=O)[C@@H]2CC[C@H]2CN2C[C@@]3(CCCc4cc(Cl)ccc43)COc3ccc(cc32)C(=O)NS1(=O)=O [Example 100153, (1S,3′R,6′R,7′R,11′S,12′R)-6-chloro-7′-hydroxy-11′,12′-dimethyl-7′-(2-oxo-2-(2-oxo-1,3-oxazolidin-3-yl)ethyl)-3,4-dihydro-2H,15′H-spiro[naphthalene-1,22′-[20]oxa[13]thia[1,14]diazatetracyclo [14.7.2.0~3,6~.0~19,24~]pentacosa[16,18,24]trien]-15′-one 13′,13′-dioxide] | 0.738 nM | – | 4660 nM
7 | COCCN(C)C1=NO[C@@]2(CCC[C@H](C)[C@@H](C)S(=O)(=O)NC(=O)c3ccc4c(c3)N(C[C@@H]3CC[C@H]32)C[C@@]2(CCCc3cc(Cl)ccc32)CO4)C1 [Example 100155, (1S,3′R,6′R,7′S,11′S,12′R)-6-chloro-3″- ((2-methoxyethyl)(methyl)amino)-11′,12′-dimethyl-3,4-dihydro-2H,4″H,15′H-dispiro[naphthalene-1,22′-[20]oxa[13]thia[1,14]diazatetracyclo [14.7.2.0~3,6~.0~19,24~]pentacosa[16,18,24]triene-7′,5″-[1,2]oxazol]-15′-one 13′,13′-dioxide] | 0.225 nM | 332 nM | –
8 | C[C@@H]1[C@@H](C)C/C=C/[C@](O)(CCCO)[C@@H]2CC[C@H]2CN2C[C@@]3(CCCc4cc(Cl)ccc43)COc3ccc(cc32)C(=O)NS1(=O)=O [Example 100156, (1S,3′R,6′R,7′R,8′E,11′S,12′R)-6-chloro-7′-hydroxy-7′-(3-hydroxypropyl)-11′,12′-dimethyl-3,4-dihydro-2H,15′H-spiro[naphthalene-1,22′-[20]oxa[13]thia[1,14]diazatetracyclo [14.7.2.0~3,6~.0~19,24~]pentacosa[8,16,18,24]tetraen]-15′-one 13′,13′-dioxide] | 0.41 nM | 568 nM | –
9 | C=CCC[C@@]1(O)/C=C/C[C@H](C)[C@@H](C)S(=O)(=O)NC(=O)c2ccc3c(c2)N(C[C@@H]2CC[C@H]21)C[C@@]1(CCCc2cc(Cl)ccc21)CO3 [Example 100157, (1S,3′R,6′R,7′R,8′E,11′S,12′R)-7′-(3-buten-1-yl)-6-chloro-7′-hydroxy-11′,12′-dimethyl-3,4-dihydro-2H,15′H-spiro[naphthalene-1,22′-[20]oxa[13]thia[1,14]diazatetracyclo [14.7.2.0~3,6~.0~19,24~]pentacosa[8,16,18,24]tetraen]-15′-one 13′,13′-dioxide] | 4.81 nM | – | 3210 nM
10 | C=CCC[C@@]1(O)/C=C/C[C@H](C)[C@@H](C)S(=O)(=O)NC(=O)c2ccc3c(c2)N(C[C@@H]2CC[C@H]21)C[C@@]1(CCCc2cc(Cl)ccc21)CO3 [Example 100158, (1S,3′R,6′R,7′R,8′E,11′S,12′R)-7′-(3-buten-1-yl)-6-chloro-7′-hydroxy-11′,12′-dimethyl-3,4-dihydro-2H,15′H-spiro[naphthalene-1,22′-[20]oxa[13]thia[1,14]diazatetracyclo [14.7.2.0~3,6~.0~19,24~]pentacosa[8,16,18,24]tetraen]-15′-one 13′,13′-dioxide] | 0.298 nM | – | 260 nM
11 | COCCC[C@]1(O)/C=C/C[C@H](C)[C@@H](C)S(=O)(=O)NC(=O)c2ccc3c(c2)N(C[C@@H]2CC[C@H]21)C[C@@]1(CCCc2cc(Cl)ccc21)CO3 [Example 100160, (1S,3′R,6′R,7′S,8′E,11′S,12′R)-6-chloro-7′-hydroxy-7′-(3-methoxypropyl)-11′,12′-dimethyl-3,4-dihydro-2H,15′H-spiro[naphthalene-1,22′-[20]oxa[13]thia[1,14]diazatetracyclo [14.7.2.0~3,6~.0~19,24~]pentacosa[8,16,18,24]tetraen]-15′-one 13′,13′-dioxide] | 0.169 nM | 78 nM | –
12 | C[C@@H]1[C@@H](C)CCC[C@@](O)(Cc2nccn2C)[C@@H]2CC[C@H]2CN2C[C@@]3(CCCc4cc(Cl)ccc43)COc3ccc(cc32)C(=O)NS1(=O)=O [Example 100162, (1S,3′R,6′R,7′R,11′S,12′R)-6-chloro-7′-hydroxy-11′,12′-dimethyl-7′-((1-methyl-1H-imidazol-2-yl)methyl)-3,4-dihydro-2H,15′H-spiro[naphthalene-1,22′-[20]oxa[13]thia[1,14]diazatetracyclo [14.7.2.0~3,6~.0~19,24~]pentacosa[16,18,24]trien]-15′-one 13′,13′-dioxide] | 3.47 nM | – | 2870 nM
13 | C[C@@H]1[C@@H](C)CCC[C@@](O)(Cc2nccn2C)[C@@H]2CC[C@H]2CN2C[C@@]3(CCCc4cc(Cl)ccc43)COc3ccc(cc32)C(=O)NS1(=O)=O [Example 100163, (1S,3′R,6′R,7′R,11′S,12′R)-6-chloro-7′-hydroxy-11′,12′-dimethyl-7′-((1-methyl-1H-imidazol-2-yl)methyl)-3,4-dihydro-2H,15′H-spiro[naphthalene-1,22′-[20]oxa[13]thia[1,14]diazatetracyclo [14.7.2.0~3,6~.0~19,24~]pentacosa[16,18,24]trien]-15′-one 13′,13′-dioxide] | 2.79 nM | – | 1000 nM
14 | COCCN(C)S(=O)(=O)C[C@]1(O)CCC[C@H](C)[C@@H](C)S(=O)(=O)NC(=O)c2ccc3c(c2)N(C[C@@H]2CC[C@H]21)C[C@@]1(CCCc2cc(Cl)ccc21)CO3 [Example 100165, 1-((1S,3′R,6′R,7′S,11′S,12′R)-6-chloro-7′-hydroxy-11′,12′-dimethyl-13′,13′-dioxido-15′-oxo-3,4-dihydro-2H-spiro[naphthalene-1,22′-[20]oxa[13]thia[1,14]diazatetracyclo [14.7.2.0~3,6~.0~19,24~]pentacosa[16,18,24]trien]-7′-yl)-N-(2-methoxyethyl)-N-methylmethanesulfonamide] | 0.455 nM | 579 nM | –
15 | COCCN(C)S(=O)(=O)C[C@]1(O)CCC[C@H](C)[C@@H](C)S(=O)(=O)NC(=O)c2ccc3c(c2)N(C[C@@H]2CC[C@H]21)C[C@@]1(CCCc2cc(Cl)ccc21)CO3 [Example 100166, 1-((1S,3′R,6′R,7′S,11′S,12′R)-6-chloro-7′-hydroxy-11′,12′-dimethyl-13′,13′-dioxido-15′-oxo-3,4-dihydro-2H-spiro[naphthalene-1,22′-[20]oxa[13]thia[1,14]diazatetracyclo [14.7.2.0~3,6~.0~19,24~]pentacosa[16,18,24]trien]-7′-yl)-N-(2-methoxyethyl)-N-methylmethanesulfonamide] | 1.77 nM | – | 945 nM
